Source: patent publication US20260217735A1, “HETEROCYCLES AND USES THEREOF” (Kumquat Biosciences Inc., priority 2023, published 2026)

Tests used:
Assay type in all cases: biochemical
[1] = molecular target: T1, KRAS G12V (Homo sapiens, UniProt P01116, G12V); test: HTRF assay, KRAS G12V interaction with SOS1; conditions: bins <500 nM / 500 nM to 1000 nM, read-out: Inhibition of KRAS G12V (IC50)
T1 construct: made in house; host or cells: E. coli, e.g. BL21 (DE3)
Excerpt: (§1) This assay can be also used to assess a selective inhibition or reduction of signaling output of a mutant Ras protein relative to a wildtype, or relative to a different mutant Ras protein. For example, the equilibrium interaction of wildtype KRAS or K-Ras mutant (e.g., wildtype or a mutant thereof) with SOS1 (e.g., hSOS1) can be assessed as a proxy or an indication for the ability of a subject compound to bind and inhibit Ras protein. The HTRF assay detects from (i) a fluorescence resonance energy transfer (FRET) donor (e.g., antiGST-Europium) that is bound to GST-tagged K-Ras mutant to (ii) a FRET acceptor (e.g., anti-6His-XL665) bound to a His-tagged hSOSL1.
(§2) The assay buffer can contain ~5 mM HEPES pH 7.4, ~150 mM NaCl, ~1 mM DTT, 0.05% BSA and 0.0025% (v/v) Igepal. A Ras working solution is prepared in an assay buffer containing typically a suitable amount of the protein construct (e.g., GST-tagged K-Ras mutant) and the FRET donor (e.g., antiGST-Eu(K) from Cisbio, France). A SOS1 working solution is prepared in an assay buffer containing suitable amount of the protein construct (e.g., His-hSOS1) and the FRET acceptor (e.g., anti-6His-XL665 from Cisbio, France). A suitable amount of the protein construct will depend on the range of activity or range of IC50 values being detected or under investigation. For detecting an IC50 within a range of 500 nM, the protein constructs of the same range of molarity can be utilized.
(§3) A fixed volume of DMSO with or without test compound is transferred into a 384-well plate. Ras working solution is added to all wells of the test plate. SOS1 working solution is added to all wells except for those that are subsequently filled with inhibitor control solution. Upon incubation for about 10 minutes or longer, the fluorescence is measured with a M1000Pro plate reader (Tecan) using HTRF detection (excitation 337 nm, emission 1: 620 nm, emission 2: 665 nm). Compounds are tested in duplicate at different concentrations (for example, 10 μM, 2.5 μM, 0.63 μM, 0.16 μM, 0.04 μM, 0.01 μM test compound). The ratiometric data (i.e., emission 2 divided by emission 1) is used to calculate IC50 values against Ras using GraphPad Prism (GraphPad software). Signaling output measured in terms of IC50 values can be obtained and a ratio of IC50 against one mutant relative to another mutant can be calculated. For instance, a selective reduction of K-Ras G12S signaling output can be evidenced by a ratio greater than one. In particular, a selective reduction of K-Ras G12S signaling relative to K-Ras WT signaling is evidenced if the ratio of IC50 (against K-Ras WT) to IC50 (against K-Ras G12S) is greater than 1.

[2] = molecular target: T2, KRAS G12D (Homo sapiens, UniProt P01116, G12D); test: HTRF assay, KRAS G12D interaction with SOS1; conditions: bins <500 nM / 500 nM to 1000 nM, read-out: Inhibition of KRAS G12D (IC50)
T2 construct: made in house; host or cells: E. coli, e.g. BL21 (DE3)
T2 sequence (P01116 1-188 isoform P01116-2 G12D): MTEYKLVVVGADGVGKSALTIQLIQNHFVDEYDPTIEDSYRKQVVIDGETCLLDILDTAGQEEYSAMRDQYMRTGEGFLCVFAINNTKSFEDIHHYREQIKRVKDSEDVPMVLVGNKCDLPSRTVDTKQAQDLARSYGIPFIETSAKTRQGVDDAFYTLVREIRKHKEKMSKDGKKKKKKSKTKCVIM
Excerpt: as §1, §2, §3

[3] = molecular target: T3, KRAS WT (Homo sapiens, UniProt P01116); test: HTRF assay, wildtype KRAS interaction with SOS1; conditions: bins <500 nM / 500 nM to 1000 nM, read-out: Inhibition of KRAS WT (IC50)
T3 construct: made in house; host or cells: E. coli, e.g. BL21 (DE3)
T3 sequence (P01116 1-188 isoform P01116-2): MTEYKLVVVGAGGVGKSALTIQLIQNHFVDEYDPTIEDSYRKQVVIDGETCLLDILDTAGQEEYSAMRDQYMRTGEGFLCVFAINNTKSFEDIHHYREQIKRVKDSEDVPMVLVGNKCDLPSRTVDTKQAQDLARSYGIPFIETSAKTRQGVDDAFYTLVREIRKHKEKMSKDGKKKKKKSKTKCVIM
Excerpt: as §1, §2, §3

[4] = molecular target: T4, KRAS G12S (Homo sapiens, UniProt P01116, G12S); test: HTRF assay, KRAS G12S interaction with SOS1; conditions: bins <500 nM / 500 nM to 1000 nM, read-out: Inhibition of KRAS G12S (IC50)
T4 construct: made in house; host or cells: E. coli, e.g. BL21 (DE3)
T4 sequence (P01116 1-188 isoform P01116-2 G12S): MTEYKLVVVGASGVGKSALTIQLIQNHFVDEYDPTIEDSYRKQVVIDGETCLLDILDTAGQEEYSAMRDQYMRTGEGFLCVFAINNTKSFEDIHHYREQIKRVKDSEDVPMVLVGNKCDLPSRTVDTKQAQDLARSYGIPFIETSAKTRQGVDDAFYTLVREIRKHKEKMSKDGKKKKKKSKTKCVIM
Excerpt: as §1, §2, §3

Measured: IC50

T1 sequence (P01116 1-188 isoform P01116-2 G12V): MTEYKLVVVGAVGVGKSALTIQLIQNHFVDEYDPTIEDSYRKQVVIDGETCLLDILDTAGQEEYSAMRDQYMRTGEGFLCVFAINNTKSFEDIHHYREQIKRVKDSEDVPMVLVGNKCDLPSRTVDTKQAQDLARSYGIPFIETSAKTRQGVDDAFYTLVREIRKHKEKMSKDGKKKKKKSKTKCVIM

CCN(c1nc(OC[C@@]23CCCN2C[C@H](F)C3)nc2c(F)c(-c3ccc(F)c4sc(N)c(C#N)c34)c(C3CC3)cc12)[C@@H]1CCN(C(=O)n2cc(C)nc2C)[C@@H]1C (atropisomer, axis not shown; (aS)) [Compound 190, (S)-2-amino-4-(6-cyclopropyl-4-(((2R,3R)-1-(2,4-dimethyl-1H-imidazole-1-carbonyl)-2-methylpyrrolidin-3-yl)(ethyl)amino)-8-fluoro-2-(((2R,7aS)-2-fluorotetrahydro-1H-pyrrolizin-7a(5H)-yl)methoxy)quinazolin-7-yl)-7-fluorobenzo[b]thiophene-3-carbonitrile]
< 500 nM: all assays above

CN(c1nc(OC[C@@]23CCCN2C[C@H](F)C3)nc2c(F)c(-c3ccc(F)c4sc(N)c(C#N)c34)c(Cl)cc12)C1CN(C(=O)n2ccnc2)CC1F (single isomer, unassigned) [Compound 191]
< 500 nM: all assays above

Cc1cn(C(=O)N2CC[C@@H](N(C)c3nc(OC[C@@]45CCCN4C[C@H](F)C5)nc4c(F)c(-c5ccc(F)c6sc(N)c(C#N)c56)c(Cl)cc34)[C@H]2C)c(C)n1 [Compound 105, 2-amino-4-(6-chloro-4-(((2R,3R)-1-(2,4-dimethyl-1H-imidazole-1-carbonyl)-2-methylpyrrolidin-3-yl)(methyl)amino)-8-fluoro-2-(((2R,7aS)-2-fluorotetrahydro-1H-pyrrolizin-7a(5H)-yl)methoxy)quinazolin-7-yl)-7-fluorobenzo[b]thiophene-3-carbonitrile]
< 500 nM: all assays above

CCN(c1nc(OC[C@@]23CCCN2C[C@H](F)C3)nc2c(F)c(-c3cccc4sc(N)c(C#N)c34)c(Cl)cc12)[C@@H]1CCN(C(=O)n2cc(C#N)nc2C)[C@@H]1C [Compound 113, 1-((2R,3R)-3-((7-(2-amino-3-cyanobenzo[b]thiophen-4-yl)-6-chloro-8-fluoro-2-(((2R,7aS)-2-fluorotetrahydro-1H-pyrrolizin-7a(5H)-yl)methoxy)quinazolin-4-yl)(ethyl)amino)-2-methylpyrrolidine-1-carbonyl)-2-methyl-1H-imidazole-4-carbonitrile]
< 500 nM: all assays above

Cc1ncn(C(=O)N2C[C@H]3[C@@H]2CCCN3c2nc(OC[C@]34CCCN3C[C@@H](F)C4)nc3c(F)c(-c4ccc(F)c5sc(N)c(C#N)c45)c(Cl)cc23)c1C [Compound 129, 2-amino-4-(6-chloro-4-((1S,6S)-7-(4,5-dimethyl-1H-imidazole-1-carbonyl)-2,7-diazabicyclo[4.2.0]octan-2-yl)-8-fluoro-2-(((2S,7aR)-2-fluorotetrahydro-1H-pyrrolizin-7a(5H)-yl)methoxy)quinazolin-7-yl)-7-fluorobenzo[b]thiophene-3-carbonitrile]
< 500 nM: all assays above

CCN(c1nc(OC[C@@]23CCCN2C[C@H](F)C3)nc2c(F)c(-c3ccc(F)c4sc(N)c(C#N)c34)c(Cl)cc12)[C@@H]1CCN(C(=O)n2cnc3c2CCC3)[C@@H]1C [Compound 132, 2-amino-4-(6-chloro-4-(ethyl((2R,3R)-2-methyl-1-(1,4,5,6-tetrahydrocyclopenta[d]imidazole-1-carbonyl)pyrrolidin-3-yl)amino)-8-fluoro-2-(((2R,7aS)-2-fluorotetrahydro-1H-pyrrolizin-7a(5H)-yl)methoxy)quinazolin-7-yl)-7-fluorobenzo[b]thiophene-3-carbonitrile]
< 500 nM: all assays above

CC1CC(N(C)c2nc(OC[C@@]34CCCN3C[C@H](F)C4)nc3c(F)c(-c4ccc(F)c5sc(N)c(C#N)c45)c(Cl)cc23)CN1C(=O)n1cnc(F)n1 (stereo partly drawn) [Compound 146, 2-amino-4-(6-chloro-8-fluoro-4-((1-(3-fluoro-1H-1,2,4-triazole-1-carbonyl)-5-methylpyrrolidin-3-yl)(methyl)amino)-2-(((2R,7aS)-2-fluorotetrahydro-1H-pyrrolizin-7a(5H)-yl)methoxy)quinazolin-7-yl)-7-fluorobenzo[b]thiophene-3-carbonitrile]
< 500 nM: all assays above

CC1CC(N(C)c2nc(OC[C@@]34CCCN3C[C@H](F)C4)nc3c(F)c(-c4ccc(F)c5sc(N)c(C#N)c45)c(Cl)cc23)CCN1C(=O)n1ccnc1 (stereo partly drawn) [Compound 153, 4-(4-((1-(1H-imidazole-1-carbonyl)-2-methylpiperidin-4-yl)(methyl)amino)-6-chloro-8-fluoro-2-(((2R,7aS)-2-fluorotetrahydro-1H-pyrrolizin-7a(5H)-yl)methoxy)quinazolin-7-yl)-2-amino-7-fluorobenzo[b]thiophene-3-carbonitrile]
< 500 nM: [1] | [3] | [4]

COCC1([C@H]2N(C(=O)n3cnc(C)c3)C[C@]23CCCCN(c2nc(OC[C@@]45CCCN4C[C@H](F)C5)nc4c(F)c(-c5ccc(F)c6sc(N)c(C#N)c56)c(Cl)cc24)C3)CC1 [Compound 203, 2-amino-4-(6-chloro-8-fluoro-2-(((2R,7aS)-2-fluorotetrahydro-1H-pyrrolizin-7a(5H)-yl)methoxy)-4-((1S,4R)-1-(1-(methoxymethyl)cyclopropyl)-2-(4-methyl-1H-imidazole-1-carbonyl)-2,6-diazaspiro[3.6]decan-6-yl)quinazolin-7-yl)-7-fluorobenzo[b]thiophene-3-carbonitrile]
< 500 nM: all assays above

Cc1ncn(C(=O)N2CC3CCCN(c4nc(OC[C@@]56CCCN5C[C@H](F)C6)nc5c(F)c(-c6ccc(F)c7sc(N)c(C#N)c67)c(Cl)cc45)C3C2)c1C (stereo partly drawn) [Compound 206, 2-amino-4-(6-chloro-4-(6-(4,5-dimethyl-1H-imidazole-1-carbonyl)octahydro-1H-pyrrolo[3,4-b]pyridin-1-yl)-8-fluoro-2-(((2R,7aS)-2-fluorotetrahydro-1H-pyrrolizin-7a(5H)-yl)methoxy)quinazolin-7-yl)-7-fluorobenzo[b]thiophene-3-carbonitrile]
< 500 nM: all assays above

Cc1cn(C(=O)N2C[C@]3(CCCCN(c4nc(OC[C@@]56CCCN5C[C@H](F)C6)nc5c(F)c(-c6ccc(F)c7sc(N)c(C#N)c67)c(Cl)cc45)C3)[C@H]2C2(C)CC2)cn1 [Compound 207, 2-amino-4-(6-chloro-8-fluoro-2-(((2R,7aS)-2-fluorotetrahydro-1H-pyrrolizin-7a(5H)-yl)methoxy)-4-((1R,4R)-2-(4-methyl-1H-imidazole-1-carbonyl)-1-(1-methylcyclopropyl)-2,6-diazaspiro[3.6]decan-6-yl)quinazolin-7-yl)-7-fluorobenzo[b]thiophene-3-carbonitrile]
< 500 nM: all assays above
